From patent publication US8889591B2, “Herbicidal compositions comprising 4-amino-3-chloro-5-fluoro-6-(4-chloro-2-fluoro-3-methoxyphenyl)pyridine-2-carboxylic acid or a derivative thereof and bromobutide, daimuron, oxaziclomefone or pyributicarb” (Dow Agrosciences LLC, priority 2012, dated 2014)

Experiments:
ECHCG = test: In-water applied greenhouse weed control, transplanted paddy rice system; format: in vivo, Echinochloa crusgalli (L.) Beauv.; conditions: in-water application; Oxaziclomafone 20 gai/ha alone
Description: Weed seeds or nutlets of the desired test plant species were planted in puddled soil (mud) prepared by mixing a shredded, non-sterilized mineral soil (50.5 percent silt, 25.5 percent clay, and 24 percent sand, with a pH of about 7.6 and an organic matter content of about 2.9 percent) and water at a 1:1 volumetric ratio. The prepared mud was dispensed in 365 mL aliquots into 16-ounce (oz.) non-perforated plastic pots with a surface area of 86.59 square centimeters (cm^2) leaving a headspace of 3 centimeters (cm) in each pot. Mud was allowed to dry overnight prior to planting or transplanting. Rice seeds were planted in Sun Gro MetroMix® 306 planting mixture, which typically has a pH of 6.0 to 6.8 and an organic matter content of about 30 percent, in plastic plug trays. Seedlings at the second or third leaf stage of growth were transplanted into 840 mL of mud contained in 32-oz. non-perforated plastic pots with a surface area of 86.59 cm^2 4 days prior to herbicide application. The paddy was created by filling the headspace of the pots with 2.5 to 3 cm of water. […]
(§1) Treatment requirements for each compound or herbicidal component were calculated based upon the rates being tested, the concentration of active ingredient or acid equivalent in the formulation, an application volume of 2 mL per component per pot, and an application area of 86.59 cm^2 per pot.
For formulated compounds, a measured amount was placed in an individual 100 or 200 mL glass vial and was dissolved in a volume of 1.25% (v/v) Agri-Dex® crop oil concentrate to obtain application solutions. […]
(§2) The treated plants and control plants were placed in a greenhouse as described above and water was added as needed to maintain a paddy flood. After approximately 3 weeks the condition of the test plants as compared with that of the untreated plants was determined visually and scored on a scale of 0 to 100 percent where 0 corresponds to no injury or growth inhibition and 100 corresponds to complete kill. […]

CYPRO = test: as above; format: in vivo, Cyperus rotundus L.; conditions: in-water application
Description: Weed seeds or nutlets of the desired test plant species were planted in puddled soil (mud) prepared by mixing a shredded, non-sterilized mineral soil (50.5 percent silt, 25.5 percent clay, and 24 percent sand, with a pH of about 7.6 and an organic matter content of about 2.9 percent) and water at a 1:1 volumetric ratio. The prepared mud was dispensed in 365 mL aliquots into 16-ounce (oz.) non-perforated plastic pots with a surface area of 86.59 square centimeters (cm^2) leaving a headspace of 3 centimeters (cm) in each pot. Mud was allowed to dry overnight prior to planting or transplanting. Rice seeds were planted in Sun Gro MetroMix® 306 planting mixture, which typically has a pH of 6.0 to 6.8 and an organic matter content of about 30 percent, in plastic plug trays. Seedlings at the second or third leaf stage of growth were transplanted into 840 mL of mud contained in 32-oz. non-perforated plastic pots with a surface area of 86.59 cm^2 4 days prior to herbicide application. The paddy was created by filling the headspace of the pots with 2.5 to 3 cm of water. When required to ensure good germination and healthy plants, a fungicide treatment and/or other chemical or physical treatment was applied. The plants were grown for 4-22 days in a greenhouse with an approximate 14 h photoperiod which was maintained at about 29° C. during the day and 26° C. during the night. Nutrients were added as Osmocote® (19:6:12, N:P:K+ minor nutrients) at 2 g per 16-oz. pot and 4 g per 32-oz. pot. Water was added on a regular basis to maintain the paddy flood, and supplemental lighting was provided with overhead metal halide 1000-Watt lamps as necessary. The plants were employed for testing when they reached the first through fourth true leaf stage.
Treatments consisted of the acid or esters of 4-amino-3-chloro-5-fluoro-6-(4-chloro-2-fluoro-3-methoxy-phenyl)pyridine-2-carboxylic acid (compound A) each formulated as an SC and various herbicidal components alone and in combination. Forms of compound A were applied on an acid equivalent basis.
Other herbicidal components were applied on an active ingredient basis and included daimuron formulated as an EC, bromobutide (technical grade material), and oxaziclomefone (technical grade material).
as §1
For formulated compounds, a measured amount was placed in an individual 100 or 200 mL glass vial and was dissolved in a volume of 1.25% (v/v) Agri-Dex® crop oil concentrate to obtain application solutions.
For technical grade compounds, a weighed amount was placed in an individual 100 to 200 mL glass vial and was dissolved in a volume of acetone to obtain concentrated stock solutions. […] The concentrated stock solutions obtained were diluted with an equivalent volume of an aqueous mixture containing 2.5% (v/v) crop oil concentrate so that the final application solutions contained 1.25% (v/v) crop oil concentrate.
Applications were made by injecting, with a pipetter, appropriate amounts of the application solutions, individually and sequentially, into the aqueous layer of the paddy. Control plants were treated in the same manner with the solvent blank. Applications were made so that all treated plant material received the same concentrations of acetone and crop oil concentrate.
as §2

SCPJU = test: Postemergence foliar-applied greenhouse weed control, direct-seeded rice system; format: in vivo, Schoenoplectus juncoides (Roxb.) Palla; conditions: Oxaziclomefone 6.25 gai/ha alone
From the text: (§3) Seeds or nutlets of the desired test plant species were planted in a soil matrix prepared by mixing a loam or sandy loam soil (e.g., 28.6 percent silt, 18.8 percent clay, and 52.6 percent sand, with a pH of about 5.8 and an organic matter content of about 1.8 percent) and calcareous grit in an 80 to 20 ratio. The soil matrix was contained in plastic pots with a volume of 1 quart and a surface area of 83.6 square centimeters (cm^2). When required to ensure good germination and healthy plants, a fungicide treatment and/or other chemical or physical treatment was applied. The plants were grown for 8-22 days in a greenhouse with an approximate 14 h photoperiod which was maintained at about 29° C. during the day and 26° C. during the night. Nutrients (Peters Excel® 15-5-15 5-Ca 2-Mg and iron chelate) were applied in the irrigation solution as needed and water was added on a regular basis. Supplemental lighting was provided with overhead metal halide 1000-Watt lamps as necessary. The plants were employed for testing when they reached the first through fourth true leaf stage. […]
(§4) Treatment requirements were calculated based upon the rates being tested, the concentration of active ingredient or acid equivalent in the formulation, and a 12 mL application volume at a rate of 187 L/ha.
(§5) For treatments comprised of formulated compounds, measured amounts of compounds were placed individually in 25 mL glass vials and diluted in a volume of 1.25% (v/v) Agri-Dex® crop oil concentrated to obtain 12× stock solutions. […]
(§6) For treatments comprised of formulated and technical compounds, weighed amounts of the technical materials were placed individually in 25 mL glass vials and dissolved in a volume of 97:3 v/v acetone/DMSO to obtain 12× stock solutions, and measured amounts of the formulated compounds were placed individually in 25 mL glass vials and diluted in a volume of 1.5% (v/v) crop oil concentrate or water to obtain 12× stock solutions. […]

CYPIR = test: as above; format: in vivo, Cyperus iria L.; conditions: Oxaziclomefone 6.25 gai/ha alone
From the text: as §3, §4, §5, §6

CC1=C(c2ccccc2)C(=O)N(C(C)(C)c2cc(Cl)cc(Cl)c2)CO1 [Oxaziclomefone, 3-[1-(3,5-dichlorophenyl)-1-methylethyl]-2,3-dihydro-6-methyl-5-phenyl-4H-1,3-oxazin-4-one]
Visual Weed Control (%) - 21 DAA ECHCG Obs (ECHCG): 80% | Visual Weed Control (%) - 21 DAA CYPRO Obs (CYPRO; Oxaziclomafone 20 gai/ha alone (Table 6)): 0% | Visual Weed Control (%) - 21 DAA CYPRO Obs (CYPRO; Oxaziclomafone 20 gai/ha alone (Table 7)): 0% | Visual Weed Control (%) - 21 DAA CYPRO Obs (CYPRO; Oxaziclomafone 40 gai/ha alone (Table 7)): 0% | Visual Weed Control (%) - 22 DAA SCPJU Obs (SCPJU): 0% | Visual Weed Control (%) - 22 DAA CYPIR Obs (CYPIR): 0%
